Tests used:
Klebsiella pneumoniae = assay: MIC/MBC of nanoemulsions against gram-negative isolates (CLSI, alamar blue); format: cell-based; settings: Klebsiella pneumoniae (n = 5), nanoemulsions in the presence of 5 mM EDTA
Escherichia coli = assay: as above; format: cell-based; settings: Escherichia coli (n = 5), nanoemulsions in the presence of 5 mM EDTA
Proteus mirabilis = assay: as above; format: cell-based; settings: Proteus mirabilis (n = 5), nanoemulsions in the presence of 5 mM EDTA
Acinetobacter baumannii [1] = assay: as above; format: cell-based; settings: Acinetobacter baumannii (n = 5)
Pseudomonas aeruginosa [2] = assay: as above; format: cell-based; settings: Pseudomonas aeruginosa (n = 5)
Burkholderia cepacia = assay: as above; format: cell-based; settings: Burkholderia cepacia (n = 5); nanoemulsions in the presence of 5 mM EDTA; in µg/mL
[3] = tested on: Stenotrophomonas maltophilia; assay: as above; format: cell-based; settings: Stenotrophomonas maltophilia (n = 5); nanoemulsions in the presence of 5 mM EDTA
Pseudomonas aeruginosa [4] = assay: MIC/MBC against CF isolates (CLSI, alamar blue)
Burkholderia cenocepacia = assay: MIC/MBC against CF isolates (CLSI, alamar blue)
[5] = tested on: Stenotrophomonas maltophilia; assay: MIC/MBC against CF isolates (CLSI, alamar blue)
Acinetobacter baumannii [6] = assay: MIC/MBC against clinical isolates (CLSI, alamar blue)
[7] = nanoemulsions in the presence of 5 mM EDTA
[8] = P. aeruginosa, NE with 5 mM EDTA
[9] = B. cenocepacia, NE with 5 mM EDTA
[10] = 11 CF Stenotrophomonas isolates
[11] = CF Stenotrophomonas isolate NB41
[12] = CF Stenotrophomonas isolate NB42
[13] = CF Stenotrophomonas isolate NB43
[14] = CF Stenotrophomonas isolate NB44
[15] = CF Stenotrophomonas isolate NB45
[16] = CF Stenotrophomonas isolate Steno 1
[17] = CF Stenotrophomonas isolate Steno 2
[18] = CF Stenotrophomonas isolate Steno 3
[19] = CF Stenotrophomonas isolate Steno 4
[20] = CF Stenotrophomonas isolate Steno 6
[21] = CF Stenotrophomonas isolate Steno 8
[22] = S. maltophilia, NE with 1 mM EDTA
[23] = Stenotrophomonas, each drug alone
[24] = A. baumannii, NE with 1 mM EDTA

Colistin
100.0%: % susceptible (Acinetobacter baumannii [1]) | % susceptible (Pseudomonas aeruginosa [2])
> 32 µg/mL: MBC 90 (Burkholderia cenocepacia; [9]) | MIC90 (Burkholderia cenocepacia; [9]) | MBC 90 [5, 22] | MIC90 [5, 22]
≤ 0.5 µg/mL: MIC50 (Klebsiella pneumoniae) | MIC50 (Escherichia coli) | MIC50 (Acinetobacter baumannii [1]; [7]) | MIC50 [3]
<=0.5-1 ^: MIC Range [3]
<=0.5: MIC Range (Klebsiella pneumoniae; in µg/mL) | MIC Range (Escherichia coli; in µg/mL)
1 µg/mL: MIC50 (Pseudomonas aeruginosa [2]; [7]) | MIC (Pseudomonas aeruginosa [4]; CF Pseudomonas isolate NB2) | MIC (Pseudomonas aeruginosa [4]; CF Pseudomonas isolate NB3) | MIC (Pseudomonas aeruginosa [4]; CF Pseudomonas isolate NB11) | MIC (Pseudomonas aeruginosa [4]; CF Pseudomonas isolate NB17) | MIC (Pseudomonas aeruginosa [4]; CF Pseudomonas isolate NB18) | MIC [5, 19] | MIC50 (Acinetobacter baumannii [6]; 10 Acinetobacter isolates) | MIC90 (Acinetobacter baumannii [6]; 10 Acinetobacter isolates) | MIC90 (Acinetobacter baumannii [6]; [24]) | MBC (Acinetobacter baumannii [6]; Acinetobacter isolate NB31) | MIC (Acinetobacter baumannii [6]; Acinetobacter isolate NB31) | MIC (Acinetobacter baumannii [6]; Acinetobacter isolate NB32) | MIC (Acinetobacter baumannii [6]; Acinetobacter isolate NB33) | MBC (Acinetobacter baumannii [6]; Acinetobacter isolate NB34) | MIC (Acinetobacter baumannii [6]; Acinetobacter isolate NB34) | MIC (Acinetobacter baumannii [6]; Acinetobacter isolate NB35) | MBC (Acinetobacter baumannii [6]; Acinetobacter isolate NB36) | MIC (Acinetobacter baumannii [6]; Acinetobacter isolate NB36) | MIC (Acinetobacter baumannii [6]; Acinetobacter isolate NB37) | MIC (Acinetobacter baumannii [6]; Acinetobacter isolate NB38) | MIC (Acinetobacter baumannii [6]; Acinetobacter isolate NB39) | MIC (Acinetobacter baumannii [6]; Acinetobacter isolate NB40) | MIC50 (Acinetobacter baumannii [6]; Acinetobacter, each drug alone) | MIC90 (Acinetobacter baumannii [6]; Acinetobacter, each drug alone)
>32 µg/mL: MBC 50 (Burkholderia cenocepacia; 10 CF Burkholderia isolates) | MBC 90 (Burkholderia cenocepacia; 10 CF Burkholderia isolates) | MIC50 (Burkholderia cenocepacia; 10 CF Burkholderia isolates) | MIC90 (Burkholderia cenocepacia; 10 CF Burkholderia isolates) | MBC 50 (Burkholderia cenocepacia; Burkholderia, each drug alone) | MBC 90 (Burkholderia cenocepacia; Burkholderia, each drug alone) | MIC50 (Burkholderia cenocepacia; Burkholderia, each drug alone) | MIC90 (Burkholderia cenocepacia; Burkholderia, each drug alone) | MBC (Burkholderia cenocepacia; CF Burkholderia isolate NB21) | MIC (Burkholderia cenocepacia; CF Burkholderia isolate NB21) | MBC (Burkholderia cenocepacia; CF Burkholderia isolate NB22) | MIC (Burkholderia cenocepacia; CF Burkholderia isolate NB22) | MBC (Burkholderia cenocepacia; CF Burkholderia isolate NB23) | MIC (Burkholderia cenocepacia; CF Burkholderia isolate NB23) | MBC (Burkholderia cenocepacia; CF Burkholderia isolate NB24) | MIC (Burkholderia cenocepacia; CF Burkholderia isolate NB24) | MBC (Burkholderia cenocepacia; CF Burkholderia isolate NB25) | MIC (Burkholderia cenocepacia; CF Burkholderia isolate NB25) | MBC (Burkholderia cenocepacia; CF Burkholderia isolate NB26) | MBC (Burkholderia cenocepacia; CF Burkholderia isolate NB27) | MIC (Burkholderia cenocepacia; CF Burkholderia isolate NB27) | MBC (Burkholderia cenocepacia; CF Burkholderia isolate NB28b) | MIC (Burkholderia cenocepacia; CF Burkholderia isolate NB28b) | MBC (Burkholderia cenocepacia; CF Burkholderia isolate NB29) | MIC (Burkholderia cenocepacia; CF Burkholderia isolate NB29) | MBC (Burkholderia cenocepacia; CF Burkholderia isolate NB30) | MIC (Burkholderia cenocepacia; CF Burkholderia isolate NB30) | MBC 50 [5, 10] | MBC 90 [5, 10] | MIC90 [5, 10] | MBC [5, 13] | MBC [5, 14] | MBC [5, 16] | MIC [5, 16] | MBC [5, 17] | MBC [5, 18] | MIC [5, 18] | MBC [5, 20] | MBC 50 [5, 23] | MBC 90 [5, 23] | MIC90 [5, 23]
0.0%: % resistant (Acinetobacter baumannii [1]) | % resistant (Pseudomonas aeruginosa [2])
>16 µg/mL: MBC 90 (Acinetobacter baumannii [6]; 10 Acinetobacter isolates) | MBC (Acinetobacter baumannii [6]; Acinetobacter isolate NB37) | MBC (Acinetobacter baumannii [6]; Acinetobacter isolate NB38) | MBC (Acinetobacter baumannii [6]; Acinetobacter isolate NB40) | MBC 90 (Acinetobacter baumannii [6]; Acinetobacter, each drug alone)
2 µg/mL: MIC50 (Pseudomonas aeruginosa [4]; 20 CF Pseudomonas isolates) | MIC90 (Pseudomonas aeruginosa [4]; 20 CF Pseudomonas isolates) | MIC (Pseudomonas aeruginosa [4]; CF Pseudomonas isolate NB1) | MIC (Pseudomonas aeruginosa [4]; CF Pseudomonas isolate NB4) | MIC (Pseudomonas aeruginosa [4]; CF Pseudomonas isolate NB5) | MIC (Pseudomonas aeruginosa [4]; CF Pseudomonas isolate NB6) | MIC (Pseudomonas aeruginosa [4]; CF Pseudomonas isolate NB7) | MIC (Pseudomonas aeruginosa [4]; CF Pseudomonas isolate NB8) | MIC (Pseudomonas aeruginosa [4]; CF Pseudomonas isolate NB9) | MBC (Pseudomonas aeruginosa [4]; CF Pseudomonas isolate NB10) | MIC (Pseudomonas aeruginosa [4]; CF Pseudomonas isolate NB10) | MIC (Pseudomonas aeruginosa [4]; CF Pseudomonas isolate NB13) | MIC (Pseudomonas aeruginosa [4]; CF Pseudomonas isolate NB14) | MIC (Pseudomonas aeruginosa [4]; CF Pseudomonas isolate NB15) | MIC (Pseudomonas aeruginosa [4]; CF Pseudomonas isolate NB16) | MIC (Pseudomonas aeruginosa [4]; CF Pseudomonas isolate NB19) | MIC (Pseudomonas aeruginosa [4]; CF Pseudomonas isolate NB20) | MIC90 (Pseudomonas aeruginosa [4]; [8]) | MIC [5, 11] | MIC [5, 12]
<=0.5-2 ^: MIC Range (Acinetobacter baumannii [1]; [7]) | MIC Range (Pseudomonas aeruginosa [2]; [7])
32 µg/mL: MIC (Burkholderia cenocepacia; CF Burkholderia isolate NB26) | MBC [5, 11] | MIC [5, 14] | MIC [5, 17] | MBC [5, 21]
>8 µg/mL: MBC (Pseudomonas aeruginosa [4]; CF Pseudomonas isolate NB1) | MBC (Pseudomonas aeruginosa [4]; CF Pseudomonas isolate NB20)
16 µg/mL: MIC50 [5, 10] | MIC [5, 13] | MBC [5, 15] | MIC [5, 20] | MIC50 [5, 23]
4 µg/mL: MBC 50 (Pseudomonas aeruginosa [4]; 20 CF Pseudomonas isolates) | MBC (Pseudomonas aeruginosa [4]; CF Pseudomonas isolate NB4) | MBC (Pseudomonas aeruginosa [4]; CF Pseudomonas isolate NB6) | MBC (Pseudomonas aeruginosa [4]; CF Pseudomonas isolate NB7) | MBC (Pseudomonas aeruginosa [4]; CF Pseudomonas isolate NB11) | MIC (Pseudomonas aeruginosa [4]; CF Pseudomonas isolate NB12) | MBC (Pseudomonas aeruginosa [4]; CF Pseudomonas isolate NB14) | MBC (Pseudomonas aeruginosa [4]; CF Pseudomonas isolate NB16) | MBC (Pseudomonas aeruginosa [4]; CF Pseudomonas isolate NB17) | MBC (Pseudomonas aeruginosa [4]; CF Pseudomonas isolate NB18) | MBC (Pseudomonas aeruginosa [4]; CF Pseudomonas isolate NB19) | MBC 50 (Pseudomonas aeruginosa [4]; second MBC 50 line of the summary, Stenotrophomonas, values equal those of the CF Pseudomonas isolates) | MBC [5, 19] | MBC 50 (Acinetobacter baumannii [6]; 10 Acinetobacter isolates) | MBC (Acinetobacter baumannii [6]; Acinetobacter isolate NB33) | MBC (Acinetobacter baumannii [6]; Acinetobacter isolate NB35) | MBC 50 (Acinetobacter baumannii [6]; Acinetobacter, each drug alone)
> 16 µg/mL: MBC 90 (Acinetobacter baumannii [6]; [24])
>4: MIC Range (Proteus mirabilis; in µg/mL) | MIC Range (Burkholderia cepacia)
> 4 µg/mL: MIC50 (Proteus mirabilis)
8 µg/mL: MBC 90 (Pseudomonas aeruginosa [4]; 20 CF Pseudomonas isolates) | MBC (Pseudomonas aeruginosa [4]; CF Pseudomonas isolate NB2) | MBC (Pseudomonas aeruginosa [4]; CF Pseudomonas isolate NB3) | MBC (Pseudomonas aeruginosa [4]; CF Pseudomonas isolate NB5) | MBC (Pseudomonas aeruginosa [4]; CF Pseudomonas isolate NB8) | MBC (Pseudomonas aeruginosa [4]; CF Pseudomonas isolate NB9) | MBC (Pseudomonas aeruginosa [4]; CF Pseudomonas isolate NB12) | MBC (Pseudomonas aeruginosa [4]; CF Pseudomonas isolate NB13) | MBC (Pseudomonas aeruginosa [4]; CF Pseudomonas isolate NB15) | MBC 90 (Pseudomonas aeruginosa [4]; [8]) | MBC 90 (Pseudomonas aeruginosa [4]; second MBC 90 line of the summary, Stenotrophomonas, values equal those of the CF Pseudomonas isolates) | MBC [5, 12] | MIC [5, 15] | MIC [5, 21] | MBC (Acinetobacter baumannii [6]; Acinetobacter isolate NB32) | MBC (Acinetobacter baumannii [6]; Acinetobacter isolate NB39)
